Eight compounds from US10202347B2, “Compound, production method therefor, and use of said compound” (MICROBIAL CHEMISTRY RESEARCH FOUNDATION, priority 2013, dated 2019) can be followed below.

Series [1] has as its system human stomach cancer cells MKN-74. Briefly: Cell proliferation test, monoculture test (GFP fluorescence). The series is classed as cell-based. On the procedure: (§1) Human stomach cancer cells MKN-74 (Riken Cell Bank) were cultured at 37° C. and 5% CO2 in DMEM supplemented with 10% FBS (product of GIBCO Co.), 100 units/mL penicillin G (product of Invitrogen Co.), and 100 μg/mL streptomycin (product of Invitrogen Co.).
(§2) The above cancer cells were allowed to undergo gene transfer of Green fluorescence protein (GFP) expression vector, pEGFP-C1 (product of BD Biosciences Co.) using the Lipofectamine reagent (product of Invitrogen Co.), to thereby clone cells stably expressing GFP.
Only DMEM containing 1% dialyzed serum, 5 μg/mL insulin, 5 μg/mL transferrine (product of Wako Pure Chemical Industries Co.), and 1.4 μM hydrocortisone (product of Sigma Co.) was placed in a 96-well plate at 0.1 mL/well, and respective evaluation samples (the compounds expressed by Structural Formulas (1) to (13)) were added thereto at respective concentrations, followed by maintaining at 37° C. and 5% CO2 for 2 days.
Next, the above human stomach cancer cells MKN-74 were dispersed in DMEM at 5×10^5 cells/mL, and were placed in the above plate at 10 μL/well, followed by further coculturing at 37° C. and 5% CO2 for 3 days.
(§3) Measurement of cell proliferation rates in the above coculture test and monoculture test was performed in the following manner.
(§4) The medium was removed from the wells of the above plate, and a cytolysis liquid (10 mM Tris-HCl [pH 7.4], 150 mM NaCl, 0.9 mM CaCl2, and 1% Triton X-100) was added thereto at 0.1 mL/well to lyse the cells. The fluorescence intensity of GFP was measured at an excitation wavelength of 485 nm and a fluorescence wavelength of 538 nm, and the cell proliferation rates were calculated from the following formula. Cell proliferation rate (%)=(Fluorescence intensity in the presence of the evaluation sample/Fluorescence intensity in the absence of the evaluation sample)×100

The subject of series [2] is human stomach cancer cells MKN-74 cocultured with normal stromal cells derived from the human stomach, Hs738. Briefly: Cell proliferation test, coculture test with normal stromal cells Hs738 (GFP fluorescence). In kind it is cell-based. The protocol: as §1, §2
Normal stromal cells derived from the human stomach, Hs738 ((CRL-7869), ATCC) were cultured at 37° C. and 5% CO2 in DMEM supplemented with 10% FBS, 100 units/mL penicillin G (product of Invitrogen Co.), 100 μg/mL streptomycin (product of Invitrogen Co.), 5 μg/mL insulin, 5 μg/mL transferrin (product of Wako Pure Chemical Industries Co.), 1.4 μM hydrocortisone (product of Sigma Co.), and […] basic-FGF (product of Pepro Tech Co.).
The above normal stromal cells derived from the human stomach, Hs738 were dispersed at 5×10^4 cells/mL in DMEM containing 1% dialyzed serum, 5 μg/mL insulin, 5 μg/mL transferrine (product of Wako Pure Chemical Industries Co.), and 1.4 μM hydrocortisone (product of Sigma Co.), and were placed in a 96-well plate at 0.1 mL/well. Respective evaluation samples (the compounds expressed by Structural Formulas (1) to (13)) were added thereto at respective concentrations, followed by culturing at 37° C. and 5% CO2 for 2 days.
Next, the above human stomach cancer cells MKN-74 were dispersed in DMEM at 5×10^5 cells/mL, and were placed at 10 μL/well in the plate in which the above normal stromal cells derived from the human stomach, Hs738 had been cultured, followed by further coculturing at 37° C. and 5% CO2 for 3 days.
as §3, §4

Series [3] in a line: Acute toxicity test (maximum tolerated dose). The note with it: female, ICR, mouse, in vivo, iv. The text has this: ICR mice (female, 4 weeks old, product of Charles River Co.) were bred under the SPF conditions.
One half of the administration dose at which the mice were recognized to be dead or have serious toxicity for the observation period of 2 weeks was defined as the maximum tolerated dose (MTD) in the present experiment.

Series [4] has as its system H. pylori JCM12095 strain. Description: Measurement of MIC for H. pylori JCM12095. The series is classed as cell-based. The note with it: Helicobacter pylori, read-out: MIC H. pylori JCM 12095. On the procedure: Each of the above compounds was measured for minimum inhibitory concentration (MIC) for Helicobacter pylori.
Helicobacter pylori JCM12093 strain and H. pylori JCM12095 strain each were statically cultured in a HP medium (brain heart infusion broth (product of Becton, Dickinson Co.) supplemented with 10% fetal bovine serum (product of Life Technologies Co.)) for 144 hours at 37° C. under microaerobic culture conditions (microaerobic conditions (N2:O2:CO2=85:5:10)).
After completion of the culturing, the culture was suspended with the HP medium and diluted so that Helicobacter pylori was 2×10^6 CFU/mL to 9×10^6 CFU/mL.
Each of the test samples (each of the above compounds, clarithromycin, and ampicillin) was prepared with the HP medium to have a concentration of 256 mg/L. From this concentration, the test sample was 2-fold diluted serially in 15 steps to 0.0078 mg/L.
The above-diluted culture was added at 50 μL/well to 50 μL/well of the HP medium containing each of the test samples at the above concentrations, and was statically cultured for 144 hours at 37° C. under microaerobic culture conditions (microaerobic conditions (N2:O2:CO2=85:5:10)). After completion of the culturing, the presence or absence of proliferation of each bacterium was visually determined based on turbidity, and the MIC for each bacterial strain was obtained.

Series [5] relates to Haemophilus influenza T-196 strain. Briefly: Measurement of MIC for Haemophilus influenza T-196. The note with it: read-out: MIC Haemophilus influenzae T-196. The series is classed as cell-based. The protocol: Each of the above compounds was measured for minimum inhibitory concentration (MIC) for Haemophilus influenza.
Haemophilus influenza T-196 strain and H. influenza ARD476 strain each were statically cultured in a HI medium (Muller Hinton medium (product of Becton, Dickinson Co.) supplemented with 5% Fildes enrichment (product of Becton, Dickinson Co.)) at 37° C. overnight under aerobic conditions containing 5% carbon dioxide gas.
After completion of the culturing, the culture was suspended with the HI medium and diluted so that each Haemophilus influenza strain was 2×10^6 CFU/mL to 9×10^6 CFU/mL.
Each of the test samples (each of the above compounds, clarithromycin, and ampicillin) was prepared with the HI medium to have a concentration of 256 mg/L. From this concentration, the test sample was 2-fold diluted serially in 11 steps to 0.125 mg/L.
The above-diluted culture was added at 50 μL/well to 50 μL/well of the HI medium containing each of the test samples at the above concentrations, and was statically cultured for 18 hours at 37° C. under aerobic conditions containing 5% carbon dioxide gas.
After completion of the culturing, the presence or absence of proliferation of each bacterium was visually determined based on turbidity, and the MIC for each bacterial strain was obtained.

[6] abbreviates: monoculture test, MKN-74 alone, cell proliferation rate, average of duplicate, read-out: Mono IC50.
The mark [7] stands for this setting: coculture test, MKN-74 with stromal cells Hs738, cell proliferation rate, average of duplicate, read-out: Cocul IC50.
Setting [8] is: JCM12095, HP medium, 144 hours, 37° C., microaerobic.
[9] abbreviates: HI medium, 18 hours, 37° C., 5% carbon dioxide.
Setting [10] is: intravenous administration, ICR mice, observed for 2 weeks, one half of the dose with death or serious toxicity, read-out: MTD.

SMILES strings stand for the structures. Like-named read-outs stand apart in the source and are kept apart here.

Consider `CCCCCCCCc1nc2ccccc2c(OCC(=O)O)c1C` [Structural Formula (2)], for which the IC50 is 2.95 µg/mL in series [1] (setting [6]) and 0.37 µg/mL in series [2] (setting [7]). Also, the MTD at 2 weeks in series [3] (MTD) is at least 50 mg/kg. Further, the MIC stood at 0.5 µg/mL in series [4] (setting [8]) and 64 µg/mL in series [5] (setting [9]).
Take `Cc1c(CCCC/C=C/C(C)C)[nH]c2ccccc2c1=O` [Structural Formula (3)]: the IC50 is above 100 µg/mL in series [1] (setting [6]) and 0.012 µg/mL in series [2] (setting [7]). The MTD at 2 weeks in series [3] (setting [10]) stood at 1.56 mg/kg. The results for the MIC in series [4] (setting [8]) and in series [5] (setting [9]) were 0.016 µg/mL and above 128 µg/mL, respectively.
Regarding `Cc1c(CC(C)C)[nH]c2ccccc2c1=O` [Structural Formula (4)], the IC50 was above 100 µg/mL in series [1] (setting [6]) and 1.32 µg/mL in series [2] (setting [7]). This compound also yielded an MTD at 2 weeks in series [3] (MTD) of 25 mg/kg. Besides, the MIC in series [4] (setting [8]) came to 0.25 µg/mL; in series [5] (setting [9]) it was 64 µg/mL.
In the same order, the values of `CCCCCCCCc1c(C)c(=O)c2ccccc2n1CC(=O)OC` [Structural Formula (5)] are above 100 µg/mL, 0.53 µg/mL, 6.25 mg/kg, 2 µg/mL and above 128 µg/mL.
In the same order, the values of `CCCCCCCCc1c(C)c(=O)c2ccccc2n1CC(=O)O` [Structural Formula (6)] are 71 µg/mL, 4.15 µg/mL, at least 50 mg/kg, 0.25 µg/mL and 128 µg/mL.
With `CCCCCCCc1c(C)c(=O)c2ccccc2n1CN=C=S` [Structural Formula (11)], the IC50 turned out to be 89.5 µg/mL in series [1] (setting [6]) and 0.12 µg/mL in series [2] (setting [7]). In addition, in series [3] (setting [10]), the MTD at 2 weeks is 6.25 mg/kg. Moreover, the MIC in series [4] (setting [8]) was 0.016 µg/mL; in series [5] (18 h), above 128 µg/mL.
On to `CCCCCCCc1c(C)c(=O)c2ccccc2n1CNC(=S)SC` [Structural Formula (12)], for which the IC50 in series [1] (MKN-74, read-out: Mono IC50) worked out at 39.5 µg/mL; in series [2] (MKN-74, read-out: Cocul IC50) it was 2.91 µg/mL. Besides, the MTD at 2 weeks in series [3] (setting [10]) is at least 50 mg/kg. Moreover, the MIC was 0.06 µg/mL in series [4] (JCM12095, 144 h) and above 128 µg/mL in series [5] (setting [9]).
Take `CCCCCCCc1c(C)c(=O)c2ccccc2n1CN=C(SC)SC` [Structural Formula (13)]: the IC50 in series [1] (MKN-74, read-out: Mono IC50) was determined as 1.36 µg/mL; in series [2] (MKN-74, read-out: Cocul IC50), 0.78 µg/mL. In series [3] (setting [10]), the MTD at 2 weeks was at least 50 mg/kg. The MIC was 2 µg/mL in series [4] (JCM12095, 144 h) and above 128 µg/mL in series [5] (setting [9]).

One may read the IC50 as the midpoint of a concentration-inhibition curve. The MTD is the largest dose that counted as tolerated.
